Results published in patent publication US5989846A, “Assays to identify inducers of plant defense resistance” (Rutgers, The State University of New Jersey, priority 1995, dated 1999).

Assays:
[1] = tested on: salicylic acid binding protein; experiment: Competitive [14C] salicylic acid binding assay (spin-column); parameters: species or system tobacco; details: for Inhibition (%) 2× / Inhibition (%) 10×: [14C] salicylic acid 20 μM; for Inhibition (%) 2×: 40 μM (2×) unlabeled competitor; for Inhibition (%) 10×: 200 μM (10×) unlabeled competitor
Description: The 180 kDa native binding protein isolated was tested for binding affinity and specificity. A competitive assay was established using salicylic acid binding protein fractionated from plants as previously described.
A key element during the characterization and the purification process is a simple, inexpensive, sensitive and reliable method for determining the salicylic acid binding activity. For this purpose, spin-column exclusion chromatography was used to separate the bound [^14 C] salicylic acid (excluded) from the bulk free salicylic acid (included). Specifically, a 1.5 ml Eppendorf tube was punctured at the tip with a 20-gauge needle and a small amount of glass wool was added to cover the small hole. The tube was then filled with Bio-Gel P-6DG desalting gel (exclusion limit 6 KDa; purchased from Bio-Rad, Melville, N.Y.) which have been swollen in water. An alternative gel is Sephadex G-25 fine (from Pharmacia, Piscataway, N.J.). Excess liquid in the gel was removed and centrifuged for 5 minutes at full speed in a Dynamic centrifuge (Becton Dickinson). The process was then repeated several times until the gel filled the tube. After incubation of an aliquot of the extract or column fractions for 2 hr at 4° C. with 5 μM-20 μM [^14 C salicylic acid] (specifically radioactivity 55 Ci/mol; purchased from New England Nuclear), 150 μl of proteins binding sample was loaded onto the tube column, which was then rapidly centrifuged for 2 minutes at full speed and the solution of proteins and bound [^14 C-salicylic acid] that was excluded from the gel was collected into another tube that had been placed under the tube column during the centrifugation. One hundred microliters of this solution was then used to determine the amount of bound salicylic acid. […] For example, to determine the inhibitory effect of various salicylic acid analogues on salicylic acid binding activity, these individual analogues were included in the binding mixture containing both the protein and [^14 C] salicylic acid during the 2 hr incubation, and resulting binding activity was determined in comparison to the activity in the absence of these analogues. Likewise, to determine the effect of pH and antioxidants on the binding activity the protein sample was either dialyzed against a large volume of buffers with different pH or antioxidants were added to the protein sample to various concentrations and the resulting binding activities were then determined with the spin-column method in comparison with the activity determined in the absence of these treatments.

[2] = tested on: resistance or PR gene expression; parameters: key: ++: indicates a high level of biological activity; +: indicates a lower level of biological activity; ±: indicates low, but detectable biological activity in some assays; -: indicates no biological activity; details: Table 3; values reported in literature; cited from earlier work
[3] = target: T1, catalase activity of SABP (Nicotiana tabacum, UniProt P49319); experiment: Catalase activity of highly purified SABP (luminol method); type: biochemical, tobacco; details: 0.05 h; 1 mM SA or analogue, 1 mM H2O2, 500 ng highly purified SABP
T1 sequence (P49319 1-492): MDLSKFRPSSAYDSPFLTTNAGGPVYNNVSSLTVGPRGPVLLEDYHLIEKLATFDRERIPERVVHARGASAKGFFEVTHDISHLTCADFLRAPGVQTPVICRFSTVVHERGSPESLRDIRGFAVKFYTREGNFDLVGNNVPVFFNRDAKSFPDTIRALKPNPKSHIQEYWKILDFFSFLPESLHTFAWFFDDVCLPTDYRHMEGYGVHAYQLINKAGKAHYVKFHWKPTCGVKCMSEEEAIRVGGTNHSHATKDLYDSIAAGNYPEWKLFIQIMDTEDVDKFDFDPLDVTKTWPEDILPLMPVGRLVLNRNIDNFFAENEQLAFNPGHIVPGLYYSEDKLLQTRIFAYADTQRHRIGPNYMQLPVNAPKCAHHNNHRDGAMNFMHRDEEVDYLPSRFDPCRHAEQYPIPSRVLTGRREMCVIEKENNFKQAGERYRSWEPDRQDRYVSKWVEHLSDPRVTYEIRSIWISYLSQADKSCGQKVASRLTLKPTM
Description: Aliquots (50 μl) were removed from the assay mixture at 30 second intervals to assay for amount of H2 O2 remaining using the luminol method as has been described by Warm and Laties, Phytochem. […] The tube was placed in the measuring chamber and assay was initiated with automatic injection into the mixture of 100 μl of 0.5 mM K3 Fe(CN)6 in 0.2N NH4 OH, pH 9.5. Measurements were integrated over 5 second periods. H2 O2 was calculated from the standard curve constructed with known amounts of H2 O2. Rate constants of SABP catalase activity in the presence or absence of SA or its analogues were then calculated based on a first-order mechanism.

SABP = tested on: SABP; parameters: concentration or dose not given beside the values; details: Table 6; previously published data (Chen et al. 1993); cited from earlier work
ascorbate peroxidase = experiment: Ascorbate peroxidase activity in tobacco leaf extracts; type: biochemical, Nicotiana tabacum cv. Xanthi nc; details: 200 μM compound, corrected for quenching of auto oxidation
Description: […] Two grams of leaves from 6-8 week old tobacco plants (Nicotiana tabacum cv. Xanthi nc) grown at 22° C. in a 14 hr light cycle were homogenized under liquid nitrogen using a pestle and mortar.
To obtain ascorbate peroxidase-containing extracts, the soluble proteins were extracted by grinding the powder in 10 ml of 100 mM potassium phosphate, pH 7, containing […] ascorbate and 1% (weight/volume) polyvinylpyrrolidone, with a small amount of quartz sand. The homogenate was centrifuged at 14,000 g for 5 min. […] The pellet resulting from centrifugation (14,000 g, 15 min.) was resuspended in extraction buffer (100 mM potassium phosphate, pH7, containing 0.25 mM ascorbate and 1% (weight/volume) polyvinylpyrrolidone) and desalted on a PD-10 column (Pharmacia) equilibrated with 50 mM potassium phosphate, pH 7, containing 100 μM ascorbate. The extract was used immediately. […] The amount of protein per assay was 30-50 μg. Oxidation of ascorbate was followed by the decrease in the absorbance at 290 nm.
The values illustrated in FIG. 17 are the mean values for three replicated assays.

PR1 genes = experiment: PR-1 protein/gene expression in tobacco leaves (immunoblot); type: in vivo; details: for Induction of PR1 gene expression: tobacco leaves
Description: The level of PR1 protein in tobacco leaves was analyzed by immunoblot analysis to establish biological activity. Three leaf discs (1 cm in diameter) were homogenized in 200 microliters of buffer containing 50 mM Tris (pH 8.0), 1 mM EDTA, 12 mM beta-mercaptoethanol and 10 mg/ml phenylmethylsulfonyl fluoride. The homogenate was centrifuged at full speed for 10 minutes in an Eppendorf microcentrifuge. The supernatant was fractionated with 15% polyacrylamide gel under denatured conditions. Protein blotting was done with a monoclonal antibody specific to PR1 protein and protein-antibody complexes were detected with an ECL kit from Amersham.
PR gene expression is both induced by SA and associated with the development of SAR. Therefore, it was of interest to test whether SA's mechanism of action for the induction of PR genes was via its inhibition of catalases which leads to enhanced H2 O2 levels. To address this question, H2 O2 abundance was artificially raised in tobacco leaves by treating with H2 O2 or compounds which either inhibit the catalase activity, like SA itself, or promote generation of H2 O2 in vivo. […]

SABP/catalase = experiment: Competition with 14C-labeled SA for SABP/catalase in crude leaf extracts; type: binding, tobacco; details: for Inhibition (%) [14C]SA binding: Table 8, 14C-labeled SA 20 μM, 1 mM unlabeled compound, crude leaf extracts
catalase = experiment: In vivo catalase activity in tobacco suspension cells (oxygen electrode); type: cell-based; parameters: Inhibition (%) Catalase activity: concentration or dose not given beside the values; details: for Inhibition (%) Catalase activity: Table 8
Description: This was determined by adding increasing concentrations of SA or INA to tobacco suspension cells (derived from cultivar Xanthi nc), as described below. The tobacco suspension cell culture was grown in the dark in MS medium at approximately 22° C. with agitation (160 rpm). Cells were maintained by diluting 10-fold every 5 days. For experimentation, 5 ml of suspension cells obtained 3 days after dilution was transferred to a 25 ml Erlenmeyer flask and agitated (100 rpm) at room temperature in the absence or presence of SA or INA which had been adjusted to pH 5.8. After 1 hr, 1 ml of the treated cell suspension was transferred to 7 ml of fresh MS medium containing SA or INA in a 10 ml beaker (density was approximately 6 mg cells per ml). Cells were maintained in suspension with a magnetic stir bar. In vivo catalase activity was determined by measuring, with an oxygen electrode, the rate of H2 O2 -dependent O2 production immediately after addition of H2 O2 to 10 mM final concentration.

Inhibition (%) 2× [1] [%] | Inhibition (%) 10× [1] [%] | Inhibition (%) [14C]SA binding (SABP/catalase) [%] | Structure (SMILES) | Biological activity [2] | Inhibition (%) Catalase activity (catalase) [%] | further results
 |  | 69 | O=C(O)c1cc(Br)nc(Br)c1 [STR2] |  | 100 | 
 |  | 63 | O=C(O)c1cc(F)nc(F)c1 [STR3] |  | 48 | 
 |  | 25 | O=Cc1cc(Cl)nc(Cl)c1 [STR4] |  | 79 | 
 |  | 19 | O=C(O)c1cc(O)nc(O)c1 [STR5] |  | 25 | 
 |  | 11 | CC(C)c1cc(C(=O)O)cc(O)n1 [STR6] |  | 15 | 
 |  | 7 | CCCc1cc(C(=O)O)cc(O)n1 [STR7] |  | 4 | 
 |  | 1 | O=C(O)c1cccc(O)c1 [STR12] |  | 0 | 

Second part, the compound before the results:

Structure (SMILES) | Inhibition (%) 2× [1] [%] | Inhibition (%) 10× [1] [%] | Inhibition (%) [14C]SA binding (SABP/catalase) [%] | Biological activity [2] | Inhibition (%) Catalase activity (catalase) [%] | further results
O=C(O)c1ccc(O)c(O)c1O [2,3,4-Trihydroxybenzoic acid] | 1 | 2 |  | - |  | 
O=C(O)c1c(O)cc(O)cc1O [2,4,6-Trihydroxybenzoic acid] | -1 | 3 |  | - |  | 
O=C(O)c1ccccc1Cl [2-Chlorobenzoic acid] | 0 | 2 |  | - |  | 
CCOc1ccccc1C(=O)O [2-Ethoxybenzoic acid] | -3 | 2 |  | - |  | 
O=C(O)c1cc(O)c(O)cc1O [3,4,6-Trihydroxybenzoic acid] | 1 | -1 |  | - |  | 
O=C(O)c1ccc(O)c(O)c1 [3,4-Dihydroxybenzoic acid] |  |  |  |  |  | inhibition at 1000 µM [3]: 5.1%; Inhibition (%) [14C]SA binding (SABP): 0%
Nc1cccc(C(=O)O)c1O [3-Aminosalicylic acid] | 1 | 5 |  | - |  | 
Nc1ccc(C(=O)O)c(O)c1 [4-Aminosalicylic acid] | 0 | -1 |  | - |  | % Inhibition of ascorbate peroxidase (ascorbate peroxidase): 9 ± 5%
Nc1ccc(O)c(C(=O)O)c1 [5-Aminosalicylic acid] | 1 | -2 |  | - |  | 
O=C(O)c1ccccc1 [Benzoic acid] | 14 | 25 |  | + |  | Inhibition of [14C] salicylic acid binding relative to unlabeled salicylic acid ([1]; as well as unlabeled salicylic acid): about 20%; Induction of PR1 gene expression (PR1 genes): able to induce the expression of PR1 genes; Concentration needed relative to salicylic acid for similar levels of PR1 gene expression (PR1 genes; tobacco, FIG. 6A): approximately ten-fold
Oc1ccccc1O [Catechol] | 0 | 1 |  | - |  | 
OO [H2 O2, hydrogen peroxide] |  |  |  |  |  | Induction of PR1 gene expression (PR1 genes): induced the expression of PR-1 genes
O=C(O)C=Cc1ccccc1O [O-coumaric acid] |  |  |  |  |  | Competition for binding to salicylic acid binding protein ([1]; competitive binding assay): unable to compete for binding; Induction of PR1 gene expression (PR1 genes): did not induce PR1 gene expression
O=C(O)c1cc(Cl)nc(Cl)c1 [STR1] |  |  | 65 |  | 98 | 
O=C(O)c1ccccc1O [STR8] |  |  | 90 |  | 84 | 
O=C(O)c1ccc(Cl)cc1O [STR9] |  |  | 88 |  | 95 | 
O=C(O)c1cc(Cl)ccc1O [STR10] |  |  | 87 |  | 100 | 
O=C(O)c1cc(Cl)cc(Cl)c1O [STR11] |  |  | 85 |  | 100 | 
O=C(O)c1ccc(O)cc1 [STR13] |  |  | 0 |  | 0 | 
O=C(O)c1ccccc1S [Thiosalicylic acid] | -5 | 1 |  | - |  | % Inhibition of ascorbate peroxidase (ascorbate peroxidase): 0 ± 2%
O=Cc1cc(Cl)nc(Cl)c1 [analogue #7] |  |  |  |  |  | Inhibition of binding of 14C-labeled SA to SABP/catalase in vitro (in words) (SABP/catalase; in vitro): much less active; Inhibition of catalase activity in vivo (in words) (catalase): active; Induction of PR-1 protein synthesis / PR-1 gene induction (in words) (PR1 genes; N.t. cv. Xanthi nc): active
O=C(O)CO [glycolate] |  |  |  |  |  | Induction of PR1 gene expression (PR1 genes): induced
C[n+]1ccc(-c2cc[n+](C)cc2)cc1 [paraquat] |  |  |  |  |  | Induction of PR1 gene expression (PR1 genes): induced
